Common to all, as to test: pNP release at […] nm
Holding throughout (format): biochemical
Holding throughout (settings): 20 mM citrate phosphate pH 5.6, 60 °C

For one experiment, the target named is T1, RmBgl3B (Rhodothermus marinus, UniProt D0MD38).
T1 construct: gene Rmar_2069; recombinant in E. coli BL21 C43 (pET-21b(+)), signal peptide removed, C-terminal His-tag; locus tag is that of the type strain DSM 4252T homolog, gene cloned from DSM 4253
T1 sequence (D0MD38 21-839): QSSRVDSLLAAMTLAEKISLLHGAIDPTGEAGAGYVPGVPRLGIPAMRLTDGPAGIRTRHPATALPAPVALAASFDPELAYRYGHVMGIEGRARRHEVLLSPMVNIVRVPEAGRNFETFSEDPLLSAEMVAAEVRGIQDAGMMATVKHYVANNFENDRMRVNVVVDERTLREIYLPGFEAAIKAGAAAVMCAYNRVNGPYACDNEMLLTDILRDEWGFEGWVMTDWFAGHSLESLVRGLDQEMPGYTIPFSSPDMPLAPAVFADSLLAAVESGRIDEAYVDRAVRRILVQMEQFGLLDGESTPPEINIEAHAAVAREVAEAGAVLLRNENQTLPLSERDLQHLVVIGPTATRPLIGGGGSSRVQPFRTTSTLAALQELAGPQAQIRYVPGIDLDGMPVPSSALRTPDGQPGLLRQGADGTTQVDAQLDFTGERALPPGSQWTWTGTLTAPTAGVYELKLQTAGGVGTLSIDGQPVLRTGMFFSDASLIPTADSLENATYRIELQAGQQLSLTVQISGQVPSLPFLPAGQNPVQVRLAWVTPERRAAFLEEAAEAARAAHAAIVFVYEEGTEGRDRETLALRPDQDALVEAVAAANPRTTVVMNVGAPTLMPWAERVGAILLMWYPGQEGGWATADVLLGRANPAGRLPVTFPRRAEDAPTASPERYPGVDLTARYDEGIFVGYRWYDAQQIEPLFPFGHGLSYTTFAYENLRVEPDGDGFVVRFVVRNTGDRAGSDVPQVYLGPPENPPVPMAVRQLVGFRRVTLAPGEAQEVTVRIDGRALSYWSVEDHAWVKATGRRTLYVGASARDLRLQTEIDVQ

The next experiment has as its target T2, RmXyl3A (Rhodothermus marinus, UniProt D0MHL4).
T2 construct: gene Rmar_1080; locus tag is that of the type strain DSM 4252T homolog, gene cloned from DSM 4253
T2 sequence (D0MHL4 19-792): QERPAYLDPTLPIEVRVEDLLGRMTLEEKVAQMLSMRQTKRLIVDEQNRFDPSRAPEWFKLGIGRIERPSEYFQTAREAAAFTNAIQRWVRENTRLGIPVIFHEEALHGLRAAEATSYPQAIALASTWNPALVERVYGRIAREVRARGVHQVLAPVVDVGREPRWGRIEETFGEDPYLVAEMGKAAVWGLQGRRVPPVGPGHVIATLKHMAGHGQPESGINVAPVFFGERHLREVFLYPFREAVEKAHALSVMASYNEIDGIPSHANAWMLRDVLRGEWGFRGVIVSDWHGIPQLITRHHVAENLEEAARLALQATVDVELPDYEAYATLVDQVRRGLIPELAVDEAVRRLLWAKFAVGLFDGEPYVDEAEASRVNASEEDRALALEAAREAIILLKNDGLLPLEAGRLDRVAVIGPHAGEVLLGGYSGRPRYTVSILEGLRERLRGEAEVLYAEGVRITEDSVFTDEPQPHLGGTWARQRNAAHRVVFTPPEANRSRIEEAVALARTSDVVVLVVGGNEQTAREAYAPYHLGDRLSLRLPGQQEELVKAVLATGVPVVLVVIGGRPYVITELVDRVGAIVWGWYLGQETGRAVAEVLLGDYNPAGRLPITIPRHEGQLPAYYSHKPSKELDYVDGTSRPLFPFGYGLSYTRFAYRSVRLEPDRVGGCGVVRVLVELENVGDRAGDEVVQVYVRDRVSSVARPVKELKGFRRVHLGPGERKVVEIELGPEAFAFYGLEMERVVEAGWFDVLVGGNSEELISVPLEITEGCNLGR

The next experiment deals with T3, RmXyl3B (Rhodothermus marinus, UniProt D0MHL5).
T3 construct: gene Rmar_1081; locus tag is that of the type strain DSM 4252T homolog, gene cloned from DSM 4253
T3 sequence (D0MHL5 entry or part of it): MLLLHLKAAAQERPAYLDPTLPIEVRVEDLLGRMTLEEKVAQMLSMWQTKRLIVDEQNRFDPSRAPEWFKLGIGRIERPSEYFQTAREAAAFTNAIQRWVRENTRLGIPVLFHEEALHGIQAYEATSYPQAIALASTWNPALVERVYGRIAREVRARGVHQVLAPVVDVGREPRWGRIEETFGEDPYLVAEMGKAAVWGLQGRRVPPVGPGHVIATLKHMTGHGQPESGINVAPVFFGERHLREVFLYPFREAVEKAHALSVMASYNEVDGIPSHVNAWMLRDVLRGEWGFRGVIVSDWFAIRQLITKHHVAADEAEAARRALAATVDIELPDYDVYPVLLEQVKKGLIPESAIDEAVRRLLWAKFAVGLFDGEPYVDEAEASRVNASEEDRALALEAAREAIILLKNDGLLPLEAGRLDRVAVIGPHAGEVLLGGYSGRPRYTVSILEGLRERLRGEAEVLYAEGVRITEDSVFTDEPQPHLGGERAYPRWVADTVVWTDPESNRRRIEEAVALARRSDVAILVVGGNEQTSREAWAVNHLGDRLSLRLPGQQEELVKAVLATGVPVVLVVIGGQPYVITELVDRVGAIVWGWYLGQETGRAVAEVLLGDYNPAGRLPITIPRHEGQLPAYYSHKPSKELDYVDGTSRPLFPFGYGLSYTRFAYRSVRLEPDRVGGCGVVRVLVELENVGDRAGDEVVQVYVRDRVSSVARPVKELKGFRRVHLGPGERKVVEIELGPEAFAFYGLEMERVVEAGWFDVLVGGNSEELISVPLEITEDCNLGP

The term Km denotes the substrate concentration at which the rate is half of its maximum. For the substance pNP-α-L-Ara, the Km on RmBgl3B was 1900 ± 100 µM; on RmXyl3A it was 8800 ± 1000 µM; on RmXyl3B it was 2000 ± 200 µM.

For the origin of these results see publication PMC6987092, “Characterization and diversity of the complete set of GH family 3 enzymes from Rhodothermus marinus DSM 4253” (Scientific Reports, 2020).
